Molecules are shown by their SMILES. Structures can show the parent of a compound that is named as a salt.

The target of data set [1] is T1, AKT1 (Homo sapiens, UniProt P31749).
T1 construct: purchased SignalChem
The data set can be described thus: AKT Kinase Assay (IMAP fluorescent polarisation), AKT1 isoform. The class given is biochemical. The settings on record: for IC50: activated AKT1, FAM Crosstide substrate; for potency against AKT1 compared with the comparator compound: compared with the non-hydroxylated Compound A, F or L. The procedure: (§1) Testing of the compounds was performed using an AKT Kinase Assay:
(§2) Activated AKT isoforms 1, 2 and 3 were assayed utilising a 5′ FAM Crosstide (Seq. GRPRTSSFAEG-OH). The extent of kinase phosphorylation was determined by fluorescent polarisation using IMAP progressive binding reagent, which introduces binding beads which allow the reagent to specifically bind to phosphate residues via covalent co-ordination complex bonds.
(§3) iMAP binding solution stops Crosstide/kinase interaction and specifically binds phosphorylated substrates. The degree of phosphorylation is determined by fluorescent polarisation (excitation 485 nm; emission 528 nm) or the reduction in speed of rotation of the excited substrate.
(§4) The following materials were used in the assay: • a) Activated AKT isoforms (SignalChem.) dissolved in Complete Reaction buffer at a predetermined concentration selected so that the assay was carried out in the linear range. • b) AKT substrate peptide: FAM Crosstide (R7110) Molecular Devices, diluted in complete reaction buffer. • c) iMAP Progressive Screening Express Kit (R8127) Molecular Devices • d) Complete Reaction Buffer containing 0.1% BSA, 10 mM Tris-HCl, 10 mM MgCl2, 0.05% NaN3 and 0.01% phosphate free BSA, 1 mM DTT • e) Progressive Binding Solution containing 75% Buffer A, 25% Buffer B and low volume Binding Reagent which contains the binding entity for the assay • f) ATP diluted in complete reaction buffer • g) Black polystyrene 384 well assay plates (Nunc). • h) Biotek Synergy 4 Hybrid Plate reader.
(§5) 5 μl of test compound was dissolved in DMSO (Sigma Aldrich) and serially diluted in complete reaction buffer to give a fourteen point half log dose response and plated into 384 well black plates. The compound was incubated at room temperature with activated AKT isoform (5 μl) at the predetermined concentration, for 45 min.
(§6) 2.5 μl of ATP solution mixed with 2.5 μl of AKT substrate peptide (FAM Crosstide (R7110) Molecular Devices) were dispensed into each well and the plate centrifuged at 1000 rpm for 20 seconds to ensure homogenous mixing of reagents. The reaction mix was incubated in the dark for 1 h at room temperature.
(§7) The kinase reaction was stopped by the addition of Progressive Binding Solution and the mixture allowed to equilibrate for 1 h in the dark, at room temperature.
(§8) The fluorescent polarisation generated in each well was determined using a […] Synergy 4 Hybrid plate reader. In brief, each reaction solution was excited at 485 nm with the emission measured at 528 nm in both the parallel and perpendicular pathway.
(§9) The polarisation value generated in each well was calculated by Gen5 software (Biotek) and the % inhibition of kinase activity compared to vehicle control was calculated via GraphPad Prism. IC50 values for each compound were calculated by non-linear regression analysis using Prism software.
(§10) All plates were internally controlled by two methods. Firstly, by calculating the signal:noise ratio; based on kinase polarisation without inhibitor and polarisation generated by complete reaction buffer in the absence of activated kinase. Secondly by determining IC50 values generated by known inhibitors of the AKT isoforms.
(§11) The data was analysed using GraphPad Prism, with IC50 values generated using non-linear regression of the data set.

The nature of data set [2]: Pharmacokinetic analysis, half-life in rat. In kind it is in vivo. The settings on record: for half-life: rat, in vivo, read-out: T½ (rat) h. As to the method: (§12) SelectScreen® data was determined at Invitrogen. Plasma protein binding and pharmacokinetic analyses were determined using standard protocols.
A short description of data set [3]: Plasma protein binding (fraction unbound, human plasma). The class given is in vitro ADME. The procedure:
as §12

Data set [4] has as its system pAKT (Ser473) in PC3 cells. The data set can be described thus: Inhibition of pAKT in PC3 cells. The class given is cell-based. The settings on record: Homo sapiens, PC-3, 24 h incubation, read-out: inhibition of pAKT in PC3 cell lines, IC50. The procedure:
Analysis of Compound Effects on AKT Signalling Pathways: Inhibition of pAKT in PC3 Cells
PC3 cells were seeded overnight in 96 well plates followed by serum starvation for 4 h. Increasing concentrations of AKT inhibitor, in complete medium (RPMI 1640), were added to the cells and incubated for a further 24 h.
The cells were fixed in paraformaldehyde, permeabilised and blocked in BSA, followed by incubation with pAKT (Ser473) and total AKT antibody overnight (R&D Systems). Secondary antibody mixture was added, followed by a combination of fluorescent substrates added for a final incubation.
Fluorescent intensities for each antibody were read at 540/600 nm and 360/450 nm respectively on a Synergy 4 plate reader. The percentage change in fluorescent intensity was plotted against log concentration of inhibitor; to generate IC50 values (GraphPad Prism).

Data set [5] deals with kinases other than AKT1. The data set can be described thus: SelectScreen kinase panel (Invitrogen). In kind it is biochemical. The settings on record: for >=80% in Selectscreen (at 10 uM) other than AKT1: number of kinases other than AKT1 with >=80% at 10 uM. As to the method: as §12
The target in data set [6] is T2, AKT2 (Homo sapiens, UniProt P31751).
T2 construct: purchased SignalChem
T2 sequence (P31751 whole entry): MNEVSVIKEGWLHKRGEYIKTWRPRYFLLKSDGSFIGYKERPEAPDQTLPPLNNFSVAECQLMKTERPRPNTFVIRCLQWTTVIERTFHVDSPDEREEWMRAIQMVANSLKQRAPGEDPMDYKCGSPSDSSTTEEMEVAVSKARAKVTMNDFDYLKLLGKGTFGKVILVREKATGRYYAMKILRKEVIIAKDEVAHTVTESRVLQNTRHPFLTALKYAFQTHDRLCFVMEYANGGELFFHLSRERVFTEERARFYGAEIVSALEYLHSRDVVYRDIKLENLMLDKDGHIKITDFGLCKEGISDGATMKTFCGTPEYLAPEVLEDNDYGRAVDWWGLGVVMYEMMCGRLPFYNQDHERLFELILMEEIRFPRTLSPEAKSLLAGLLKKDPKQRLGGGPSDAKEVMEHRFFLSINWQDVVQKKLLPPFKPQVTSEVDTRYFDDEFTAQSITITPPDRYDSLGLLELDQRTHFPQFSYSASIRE
Kind of data set: AKT Kinase Assay (IMAP fluorescent polarisation), AKT2 isoform. The class given is biochemical. Particulars: for IC50: activated AKT2, FAM Crosstide substrate; for potency against AKT2 compared with the comparator compound: compared with the non-hydroxylated Compound A, F or L. As to the method:
as §1, §2, §3, §4, §5, §6, §7, §8, §9, §10, §11

In data set [7] the target is T3, AKT3 (Homo sapiens, UniProt Q9Y243).
T3 construct: purchased SignalChem
T3 sequence (Q9Y243 whole entry): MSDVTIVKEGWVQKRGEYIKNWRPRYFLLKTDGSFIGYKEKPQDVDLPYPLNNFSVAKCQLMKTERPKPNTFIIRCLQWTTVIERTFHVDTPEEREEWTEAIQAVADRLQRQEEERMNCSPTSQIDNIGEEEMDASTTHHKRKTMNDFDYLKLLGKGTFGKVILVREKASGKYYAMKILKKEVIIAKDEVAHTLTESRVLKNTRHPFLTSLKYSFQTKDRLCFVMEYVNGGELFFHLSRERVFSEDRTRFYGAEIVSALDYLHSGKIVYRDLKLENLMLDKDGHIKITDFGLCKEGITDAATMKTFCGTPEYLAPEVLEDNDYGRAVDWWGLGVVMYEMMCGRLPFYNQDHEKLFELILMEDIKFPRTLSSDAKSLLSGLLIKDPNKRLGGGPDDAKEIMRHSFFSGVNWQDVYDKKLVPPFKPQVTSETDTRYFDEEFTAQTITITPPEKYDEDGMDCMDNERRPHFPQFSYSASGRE
The data set can be described thus: AKT Kinase Assay (IMAP fluorescent polarisation), AKT3 isoform. In kind it is biochemical. The settings on record: for IC50: activated AKT3, FAM Crosstide substrate; for potency against AKT3 compared with the comparator compound: compared with the non-hydroxylated Compound A, F or L. The procedure: as §1, §2, §3, §4, §5, §6, §7, §8, §9, §10, §11

T1 sequence (P31749 whole entry): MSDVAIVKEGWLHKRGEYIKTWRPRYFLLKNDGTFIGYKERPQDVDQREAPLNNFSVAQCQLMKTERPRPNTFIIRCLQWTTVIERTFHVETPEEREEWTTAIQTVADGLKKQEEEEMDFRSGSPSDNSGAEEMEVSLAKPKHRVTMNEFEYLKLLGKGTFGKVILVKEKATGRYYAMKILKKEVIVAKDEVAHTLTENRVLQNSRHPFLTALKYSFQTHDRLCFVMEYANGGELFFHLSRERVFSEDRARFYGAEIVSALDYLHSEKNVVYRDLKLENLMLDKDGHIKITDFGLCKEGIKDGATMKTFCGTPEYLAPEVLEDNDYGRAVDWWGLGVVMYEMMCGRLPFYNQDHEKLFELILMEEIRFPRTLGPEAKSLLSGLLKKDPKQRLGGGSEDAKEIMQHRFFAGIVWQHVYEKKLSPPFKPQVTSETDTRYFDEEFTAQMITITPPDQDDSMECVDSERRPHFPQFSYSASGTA

Regarding `C[C@]1(O)C[C@](N)(c2ccc(-c3oc4ncn(CC(F)(F)F)c(=O)c4c3-c3ccccc3)cc2)C1` [Compound 1, 6-(4-((1s,3s)-1-Amino-3-hydroxy-3-methylcyclobutyl)phenyl)-5-phenyl-3-(2,2,2-trifluoroethyl)furo[2,3-d]pyrimidin-4(3H)-one.HCl], in data set [1], the IC50 (in general, the point on the concentration scale where inhibition reaches its midpoint) fell in the range of 0.3 to 1.5 µM and the “potency against AKT1 compared with the comparator compound” value is on record as “improved potency”. In data set [2], the half-life is at most 10 h and the “T1/2 in rodent compared with Compound A” value is “shorter T1/2”. For the same molecule, in data set [3], the fraction unbound – broadly, free concentration divided by total concentration – is at least 0.05 and the “unbound fraction (human plasma) compared with Compound A” value was “significantly higher unbound fraction”. Moreover, in data set [4], the IC50 was at most 0.5 µM. Further, the “>=80% in Selectscreen (at 10 uM) other than AKT1” value (“>=80% in Selectscreen” for short) in data set [5] is on record as “* (>2 kinases)”. Moreover, in data set [6], the IC50 was at most 0.02 µM and the “potency against AKT2 compared with the comparator compound” value is given as “improved potency”. In addition, in data set [7], the IC50 is 1 to 6 µM and the “potency against AKT3 compared with the comparator compound” value is recorded as “improved potency”.
As for `N[C@]1(c2ccc(-c3oc4ncn(CC(F)(F)F)c(=O)c4c3-c3ccccc3)cc2)C[C@@H](O)C1` [Compound 2, 6-(4-((1r,3r)-1-Amino-3-hydroxycyclobutyl)phenyl)-5-phenyl-3-(2,2,2-trifluoroethyl)furo[2,3-d]pyrimidin-4(3H)-one. HCl], the IC50 is above 1.5 µM in data set [1], at most 0.5 µM in data set [4], at most 0.02 µM in data set [6] and above 6 µM in data set [7]. Besides, the “potency against AKT2 compared with the comparator compound” value in data set [6] was “improved potency”.
Take `N[C@]1(c2ccc(-c3oc4ncn(CC(F)(F)F)c(=O)c4c3-c3ccccc3)cc2)C[C@H](O)C1` [Compound 3, 6-(4-((1s,3s)-1-Amino-3-hydroxycyclobutyl)phenyl)-5-phenyl-3-(2,2,2-trifluoroethyl)furo[2,3-d]pyrimidin-4(3H)-one.HCl]: in data set [1], the IC50 lay within 0.3 to 1.5 µM and the “potency against AKT1 compared with the comparator compound” value was “improved potency”. Further, in data set [4], the IC50 is at most 0.5 µM. Also, in data set [6], the IC50 was at most 0.02 µM and the “potency against AKT2 compared with the comparator compound” value is recorded as “improved potency”. For the same molecule, in data set [7], the IC50 lay in the range of 1 to 6 µM and the “potency against AKT3 compared with the comparator compound” value is reported as “improved potency”.
With `C[C@]1(O)C[C@@](N)(c2ccc(-c3oc4ncn(CC(F)(F)F)c(=O)c4c3-c3ccccc3)cc2)C1` [Compound 4, 6-(4-((1r,3r)-1-Amino-3-hydroxy-3-methylcyclobutyl)phenyl)-5-phenyl-3-(2,2,2-trifluoroethyl)furo[2,3-d]pyrimidin-4(3H)-one.HCl], in data set [1], the IC50 is at most 0.3 µM and the “potency against AKT1 compared with the comparator compound” value is listed as “improved potency”. Further, the IC50 in data set [4] is at most 0.5 µM. In addition, the “off-target kinase activity in the SelectScreen panel compared with Compound A” value in data set [5] (compared with compound A) is listed as “less off-target kinase activity”. Further, the “>=80% in Selectscreen” value in data set [5] is “** (1-2 kinases)”. In data set [6], the IC50 was at most 0.02 µM and the “potency against AKT2 compared with the comparator compound” value is “improved potency”. In data set [7], the IC50 was at most 1 µM and the “potency against AKT3 compared with the comparator compound” value is “improved potency”.
In the case of `C[C@]1(O)C[C@@](N)(c2ccc(-c3sc4ncn(CC(F)(F)F)c(=O)c4c3-c3ccccc3)cc2)C1` [Compound 5, 6-(4-((1r,3r)-1-Amino-3-hydroxy-3-methylcyclobutyl)phenyl)-5-phenyl-3-(2,2,2-trifluoroethyl)thieno[2,3-d]pyrimidin-4(3H)-one.TFA], in data set [1], the IC50 was at most 0.3 µM and the “potency against AKT1 compared with the comparator compound” value was “improved potency”. For the same molecule, in data set [2], the half-life was at most 10 h and the “T1/2 in rodent compared with Compound A” value was “shorter T1/2”. In data set [3], the free fraction (fraction unbound) is 0.02 to 0.05 and the “unbound fraction (human plasma) compared with Compound A” value was “significantly higher unbound fraction”. Further, the IC50 in data set [4] was at most 0.5 µM. The “>=80% in Selectscreen” value in data set [5] was “** (1-2 kinases)”. Also, in data set [6], the IC50 was in the range of 0.02 to 0.1 µM and the “potency against AKT2 compared with the comparator compound” value is recorded as “improved potency”. Further, in data set [7], the concentration for half-maximal inhibition (IC50) lay within 1 to 6 µM and the “potency against AKT3 compared with the comparator compound” value is “improved potency”.
For `Cn1c(-c2ccc([C@]3(N)C[C@](C)(O)C3)cc2)c(-c2ccccc2)c2c(=O)n(CC(F)(F)F)cnc21` [Compound 6, 6-(4-((1r,3r)-1-Amino-3-hydroxy-3-methylcyclobutyl)phenyl)-7-methyl-5-phenyl-3-(2,2,2-trifluoroethyl)-3H-pyrrolo[2,3-d]pyrimidin-4(7H)-one.HCl], in data set [1], the IC50 is at most 0.3 µM and the “potency against AKT1 compared with the comparator compound” value is recorded as “improved potency”. Moreover, in data set [2], the half-life is at most 10 h and the “T1/2 in rodent compared with Compound A” value is given as “shorter T1/2”. In data set [3], the fraction unbound lay in the range of 0.02 to 0.05 and the “unbound fraction (human plasma) compared with Compound A” value was “significantly higher unbound fraction”. For the same molecule, the IC50 in data set [4] is at most 0.5 µM. Moreover, the “>=80% in Selectscreen” value in data set [5] was “*** (0 kinases)”. Besides, in data set [6], the IC50 is at most 0.02 µM and the “potency against AKT2 compared with the comparator compound” value was “improved potency”. Moreover, in data set [7], the IC50 was in the range of 1 to 6 µM and the “potency against AKT3 compared with the comparator compound” value is reported as “improved potency”.
With `Cn1c(-c2ccc([C@]3(N)C[C@@H](O)C3)cc2)c(-c2ccccc2)c2c(=O)n(CC(F)(F)F)cnc21` [Compound 7, 6-(4-((1s,3s)-1-Amino-3-hydroxycyclobutyl)phenyl)-7-methyl-5-phenyl-3-(2,2,2-trifluoroethyl)-3H-pyrrolo[2,3-d]pyrimidin-4(7H)-one.HCl], the IC50 in data set [1] was 0.3 to 1.5 µM; in data set [4] it was at most 0.5 µM; in data set [6], at most 0.02 µM; in data set [7], 1 to 6 µM. Moreover, in data set [1], the “potency against AKT1 compared with the comparator compound” value was “improved potency”. Also, the “potency against AKT2 compared with the comparator compound” value in data set [6] was “improved potency”. Besides, the “potency against AKT3 compared with the comparator compound” value in data set [7] is recorded as “improved potency”.
On to `NC1(c2ccc(-c3oc4ncn(CC(F)(F)F)c(=O)c4c3-c3ccccc3)cc2)CCC1` [Compound A, reference compound], for which the IC50 in data set [1] is above 1.5 µM; in data set [6] it was 0.02 to 0.1 µM; in data set [7] it was above 6 µM. For the same molecule, the half-life in data set [2] was above 24 h. This molecule came in with a fraction unbound in data set [3] of at most 0.02. Also, the “>=80% in Selectscreen” value in data set [5] is on record as “* (>2 kinases)”.

Source of the values: US9156853B2, “AKT inhibitor compounds for treatment of cancer” (ALMAC DISCOVERY LIMITED, priority 2012, dated 2015).
